# From ChEMBL document CHEMBL1926608, “Design, synthesis and in vitro antitumour activity of new heteroaryl ethylenes” (2012)
# How the values were obtained:
# Format in all cases: functional
# NCI-H226 [1] = experiment: Growth inhibition of human NCI-H226 cells after 72 hrs by MTT assay; conditions: NCI-H226, 72 h
# A549 [2] = experiment: Growth inhibition of human A549 cells after 72 hrs by MTT assay; conditions: A549, 72 h
# A549 [3] = experiment: Cytotoxicity against human A549 cells after 72 hrs by MTT assay; conditions: A549, 72 h, read-out: pLC50 (the source's name) (converted)
# NCI-H226 [4] = experiment: Cytotoxicity against human NCI-H226 cells after 72 hrs by MTT assay; conditions: NCI-H226, 72 h
SMILES,GI50 (NCI-H226 [1]) [µM],GI50 (A549 [2]) [µM],CC50 (A549 [3]) [µM],LC50 (NCI-H226 [4]) [µM]
Cn1cccc1/C=C/c1cccc[n+]1C,100,22.9,,
CN(C)c1ccc(/C=C(\C#N)c2cccc[n+]2C)cc1,19.5,3.8,,
CN(C)c1ccc(/C=C/c2ccc3ccccc3[n+]2C)cc1,0.631,1.55,70.8,
Cn1cccc1/C=C/c1cc[n+](C)cc1,100,1.66,,
CN(C)c1ccc(/C=C/c2cc[n+](C)cc2)cc1,10,1.58,,
CN(C)c1ccc(/C=C/c2cccc(/C=C/c3ccc(N(C)C)cc3)[n+]2C)cc1,0.0447,0.372,13.2,13.8
CCCCN(CCCC)c1ccc(-c2ccc(/C=C/c3cccc(/C=C/c4ccc(-c5ccc(N(CCCC)CCCC)s5)s4)[n+]3C)s2)s1,1,4.79,,
C[n+]1c(/C=C/c2ccc(N(c3ccccc3)c3ccccc3)cc2)cccc1/C=C/c1ccc(N(c2ccccc2)c2ccccc2)cc1,2,3.16,39.8,33.1
CCCCN(CCCC)c1ccc(-c2ccc(/C=C/c3ccc4ccccc4[n+]3C)s2)s1,0.0457,0.01,,10
C[n+]1c(/C=C/c2ccc(-c3ccccc3)s2)ccc2ccccc21,1.45,2,,38
